According to US20060003976A1, “Cholesterol/bile acid/bile acid derivative-modified therapeutic drug compounds” (priority 2004, published 2006):
Where a name gives a salt, the structure may show the parent alone. Read-outs that look alike come from different tables or passages of the source.

Key:
[1] = test system: NCI-H460 (ATCC #HTB-177) (non-small cell lung); conditions: H460 (NSCLC); NCI GI50 values; read-out: GI50 (drug concentration that produces 50% cell growth inhibition); cited from earlier work
[2] = Solubility comparison in various solvents
Experimental: Compounds were dissolved in each solvent under constant stirring and temperature.

[3] = test system: SKOV-3 (ATCC #HTB-77) (ovarian); conditions: SKOV-3 (OVARIAN); NCI GI50 values; read-out: GI50 (drug concentration that produces 50% cell growth inhibition); cited from earlier work
[4] = test system: HCT-15 (ATCC #CCL-225) (colorectal); conditions: HCT-15 (COLON); NCI GI50 values; read-out: GI50 (drug concentration that produces 50% cell growth inhibition); cited from earlier work
[5] = test system: HCT-116 (ATCC #CCL-247) (colorectal); conditions: HCT-116 (COLON); NCI GI50 values; read-out: GI50 (drug concentration that produces 50% cell growth inhibition); cited from earlier work
[6] = test system: SKOV-3 (ATCC #HTB-77) (ovarian); type: cell-based; conditions: for GI50: read-out: GI50 (drug concentration that produces 50% cell growth inhibition); for GI50 (drug concentration that produces 50% cell growth inhibition): result in words
[7] = test system: HCT-15 (ATCC #CCL-225) (colorectal); type: cell-based; conditions: for GI50: read-out: GI50 (drug concentration that produces 50% cell growth inhibition); for GI50 (drug concentration that produces 50% cell growth inhibition): result in words
[8] = test system: HCT-116 (ATCC #CCL-247) (colorectal); type: cell-based; conditions: for GI50: read-out: GI50 (drug concentration that produces 50% cell growth inhibition); for GI50 (drug concentration that produces 50% cell growth inhibition): result in words
[9] = test system: NCI-H460 (ATCC #HTB-177) (non-small cell lung); type: cell-based; conditions: for GI50: read-out: GI50 (drug concentration that produces 50% cell growth inhibition); for GI50 (drug concentration that produces 50% cell growth inhibition): result in words

Compound | GI50 [1] | GI50 [3] | GI50 [5] | GI50 ([7]; HCT-15 (COLON), 48 hours) | GI50 ([8]; HCT-116 (COLON), 48 hours) | GI50 ([9]; H460 (NSCLC), 48 hours) | GI50 (drug concentration that produces 50% cell growth inhibition) ([6]; SKOV-3 (OVARIAN), 48 hours) | further results
CC[C@@]1(O)C(=O)OCc2c1cc1n(c2=O)Cc2cc3ccccc3nc2-1 [Camptothecin, camptothecin] | 16 nM | 25 nM | 40 nM |  |  |  |  | Solubility ([2]; Acetonitrile, r.t.): 0.09 mg/g; Solubility ([2]; Soybean Oil USP, r.t.): 0.00 mg/g; GI50 [4]: 160 nM
CCc1c2c(nc3ccc(OC(=O)CC4(CC(=O)O[C@H]5CC[C@@]6(C)C(=CC[C@H]7[C@@H]8CC[C@H]([C@H](C)CCCC(C)C)[C@@]8(C)CC[C@@H]76)C5)CCCC4)cc13)-c1cc3c(c(=O)n1C2)COC(=O)[C@]3(O)CC [Cholesterol 3,3-tetramethylene glutaric-10-(7-ethyl-10-hydroxycamptothecin)] |  |  |  | 12600 nM | 2000 nM | 871 nM |  | GI50 ([6]; SKOV-3 (OVARIAN), 48 hours): 295 nM
CC[C@@]1(OC(=O)CC2(CC(=O)O[C@H]3CC[C@@]4(C)C(=CC[C@H]5[C@@H]6CC[C@H]([C@H](C)CCCC(C)C)[C@@]6(C)CC[C@@H]54)C3)CCCC2)C(=O)OCc2c1cc1n(c2=O)Cc2cc3ccccc3nc2-1 [Cholesterol 3,3-tetramethylene glutaric-20-camptothecin] |  |  |  | ~10000 nM | ~10000 nM | ~10000 nM | poor | 
CCc1c2c(nc3ccc(OC(=O)CC(C)CC(=O)O[C@H]4CC[C@@]5(C)C(=CC[C@H]6[C@@H]7CC[C@H]([C@H](C)CCCC(C)C)[C@@]7(C)CC[C@@H]65)C4)cc13)-c1cc3c(c(=O)n1C2)COC(=O)[C@]3(O)CC (stereo partly drawn) [Cholesterol 3-methyl glutaric-10-SN38, Cholesterol 3-methylglutaric-10-(7-ethyl-10-hydroxycamptothecin)] |  |  |  | 2880 nM | 263 nM | 245 nM | poor | 
CC[C@@]1(OC(=O)CC(C)CC(=O)O[C@H]2CC[C@@]3(C)C(=CC[C@H]4[C@@H]5CC[C@H]([C@H](C)CCCC(C)C)[C@@]5(C)CC[C@@H]43)C2)C(=O)OCc2c1cc1n(c2=O)Cc2cc3ccccc3nc2-1 (stereo partly drawn) [Cholesterol 3-methyl glutaric-20-CPT, Cholesterol 3-Methyglutaric-20-Camptothecin] |  |  |  |  |  |  | poor | GI50 (drug concentration that produces 50% cell growth inhibition) ([7]; HCT-15 (COLON), 48 hours): poor; GI50 (drug concentration that produces 50% cell growth inhibition) ([8]; HCT-116 (COLON), 48 hours): poor; GI50 (drug concentration that produces 50% cell growth inhibition) ([9]; H460 (NSCLC), 48 hours): poor
CCc1c2c(nc3ccc(OC(=O)O[C@H]4CC[C@@]5(C)C(=CC[C@H]6[C@@H]7CC[C@H]([C@H](C)CCCC(C)C)[C@@]7(C)CC[C@@H]65)C4)cc13)-c1cc3c(c(=O)n1C2)COC(=O)[C@]3(O)CC [Cholesterol formate-10-SN38, Cholesterol formate-10-(7-ethyl-10-hydroxycamptothecin)] |  |  |  | 1910 nM | 631 nM | 10.5 nM |  | GI50 ([6]; SKOV-3 (OVARIAN), 48 hours): 51.4 nM; Solubility ([2]; Acetonitrile, r.t.): <1 mg/g; Solubility ([2]; Chloroform, r.t.): >40 mg/g; Solubility ([2]; Soybean Oil USP, r.t.): <1 mg/g; Solubility ([2]; Vitamin E USP/NF, 65 °C): >14 mg/g
CC[C@@]1(OC(=O)O[C@H]2CC[C@@]3(C)C(=CC[C@H]4[C@@H]5CC[C@H]([C@H](C)CCCC(C)C)[C@@]5(C)CC[C@@H]43)C2)C(=O)OCc2c1cc1n(c2=O)Cc2cc3ccccc3nc2-1 [Cholesterol formate-20-CPT, Cholesterol Formate-20-camptothecin] |  |  |  |  |  |  | poor | GI50 (drug concentration that produces 50% cell growth inhibition) ([7]; HCT-15 (COLON), 48 hours): poor; Solubility ([2]; Acetonitrile, r.t.): <1 mg/g; Solubility ([2]; Chloroform, r.t.): >335 mg/g; Solubility ([2]; Soybean Oil USP, r.t.): >2 mg/g; Solubility ([2]; Vitamin E USP/NF, 65 °C): >32 mg/g; GI50 (drug concentration that produces 50% cell growth inhibition) ([8]; HCT-116 (COLON), 48 hours): poor; GI50 (drug concentration that produces 50% cell growth inhibition) ([9]; H460 (NSCLC), 48 hours): poor
CCc1c2c(nc3ccc(OC(=O)CCC(=O)O[C@H]4CC[C@@]5(C)C(=CC[C@H]6[C@@H]7CC[C@H]([C@H](C)CCCC(C)C)[C@@]7(C)CC[C@@H]65)C4)cc13)-c1cc3c(c(=O)n1C2)COC(=O)[C@]3(O)CC [Cholesterol succinate-10-SN38, Cholesterol succinate-10-(7-ethyl-10-hydroxycamptothecin)] |  |  |  |  |  |  |  | GI50 [6]: 708 nM; GI50 [7]: 635 nM; GI50 [8]: 339 nM; GI50 [9]: 1660 nM
CC[C@@]1(OC(=O)CCC(=O)O[C@H]2CC[C@@]3(C)C(=CC[C@H]4[C@@H]5CC[C@H]([C@H](C)CCCC(C)C)[C@@]5(C)CC[C@@H]43)C2)C(=O)OCc2c1cc1n(c2=O)Cc2cc3ccccc3nc2-1 [Cholesterol succinate-20-CPT, Cholesterol succinate-20-camptothecin] |  |  |  | > 5000 nM | > 5000 nM | > 5000 nM |  | GI50 ([6]; SKOV-3 (OVARIAN), 48 hours): > 5000 nM
CCc1c2c(nc3ccc(OC(=O)N4CCC(N5CCCCC5)CC4)cc13)-c1cc3c(c(=O)n1C2)COC(=O)[C@]3(O)CC [Irinotecan, irinotecan] | 5010 nM | 17 nM | 7900 nM |  |  |  |  | 
CCc1c2c(nc3ccc(O)cc13)-c1cc3c(c(=O)n1C2)COC(=O)[C@]3(O)CC [SN38, 7-ethyl-10-hydroxycamptothecin] | 1.4 nM | 1 nM | 21 nM |  |  |  |  | GI50 [4]: 7.9 nM
CC[C@@]1(O)C(=O)OCc2c1cc1n(c2=O)Cc2cc3c(CN(C)C)c(O)ccc3nc2-1 [Topotecan, topotecan] | 19.9 nM | 63 nM | 39.8 nM |  |  |  |  | GI50 [4]: 501 nM
